The target of one assay is T1, COX II (Homo sapiens, UniProt P35354).
T1 sequence (P35354 18-604): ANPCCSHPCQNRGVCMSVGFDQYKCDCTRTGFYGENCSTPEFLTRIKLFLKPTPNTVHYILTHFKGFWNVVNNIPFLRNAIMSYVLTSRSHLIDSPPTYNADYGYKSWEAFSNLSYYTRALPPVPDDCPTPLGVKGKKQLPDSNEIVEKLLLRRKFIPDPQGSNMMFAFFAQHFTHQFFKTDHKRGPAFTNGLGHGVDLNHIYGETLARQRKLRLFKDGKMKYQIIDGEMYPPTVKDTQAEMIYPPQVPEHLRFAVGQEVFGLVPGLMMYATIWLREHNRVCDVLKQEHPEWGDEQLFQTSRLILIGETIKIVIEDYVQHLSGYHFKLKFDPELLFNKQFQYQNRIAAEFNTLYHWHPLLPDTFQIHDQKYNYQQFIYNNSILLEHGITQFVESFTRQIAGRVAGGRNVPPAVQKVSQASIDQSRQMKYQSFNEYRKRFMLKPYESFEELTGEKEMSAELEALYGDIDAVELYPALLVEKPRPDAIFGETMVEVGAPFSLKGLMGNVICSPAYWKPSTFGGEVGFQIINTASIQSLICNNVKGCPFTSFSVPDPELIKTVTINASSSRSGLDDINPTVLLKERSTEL
The assay can be described thus: radiometric assay, COX II inhibition (human recombinant, baculovirus expressed, partially purified). Type of assay: biochemical. Set-up: A 1.8 Kb DNA fragment containing the coding region of human COX II was generated by PCR; made in house; host or cells: Sf9 insect cells, baculovirus. Conditions: radiometric assay, human recombinant baculovirus expressed enzyme; read-out: COX II IC50 (Table 2). Here is the method: (§1) Human prostaglandin G/H synthase I and II ("COX I" and "COX II") were expressed in the baculovirus expression system and purified to high levels.
(§2) As described above, human recombinant COX I and COX II were cloned and expressed in a baculovirus system. Partially purified COX I and COX II enzymes were used for screening compounds for their ability to inhibit COX I and COX II activity, as described below.
(§3) Compound (16), in 2 μl DMSO, and control samples (carrier vehicles only) were mixed with COX I or COX II samples (e.g. fractions from the chromatography columns) in polypropylene tubes and preincubated with 2 mM phenol for 5 minutes and then with 1 μM hematin for an additional 5 minutes. The 150 μl reaction mixture consisted of 50 mM Tris --HCl, pH 7.9, 2 mM EDTA, 10% glycerol, 200 μM phenol, 1 μM hematin, 1-25 μl sample and 20 μM 1-[^14 C] arachidonate (80.000-100.000 cpm/tube). After 45 seconds at room temperature, the reaction was terminated by adding 200 μl of 2N HCl and 750 μl water. An aliquot (950 μl) of the reaction mixture was loaded onto a 1 ml C~ Sep-Pak (J. T. Baker, Phillipsburg, N.J.) which had been previously washed with 2-3 ml methanol and equilibrated with 5-6 ml distilled water. Oxygenated products were quantitatively eluted with 3 ml of acetonitrile, H2 O and acetic acid (50:50:0.1, v/v) and the radioactivity in the eluate determined in a scintillation counter.
(§4) Human recombinant 10 min incubation with Compound (16)
(§5) baculovirus 45 sec incubation with 20 μM AA
(§6) partially purified Separation of radioactive products

A further assay addresses COX I (Homo sapiens, UniProt P23219). The assay can be described thus: radiometric assay, COX I inhibition (human recombinant, baculovirus expressed, partially purified). Also noted: A 2 Kb fragment containing the coding region of COX I; made in house; host or cells: Sf9 insect cells, baculovirus (cDNA from Oxford Biomedical Research). Type of assay: biochemical. The settings on record: radiometric assay, human recombinant baculovirus expressed enzyme; read-out: COX I IC50 (Table 2). Here is the method: as §1, §2, §3, §4, §5, §6

COX I, sequence (P23219 24-599): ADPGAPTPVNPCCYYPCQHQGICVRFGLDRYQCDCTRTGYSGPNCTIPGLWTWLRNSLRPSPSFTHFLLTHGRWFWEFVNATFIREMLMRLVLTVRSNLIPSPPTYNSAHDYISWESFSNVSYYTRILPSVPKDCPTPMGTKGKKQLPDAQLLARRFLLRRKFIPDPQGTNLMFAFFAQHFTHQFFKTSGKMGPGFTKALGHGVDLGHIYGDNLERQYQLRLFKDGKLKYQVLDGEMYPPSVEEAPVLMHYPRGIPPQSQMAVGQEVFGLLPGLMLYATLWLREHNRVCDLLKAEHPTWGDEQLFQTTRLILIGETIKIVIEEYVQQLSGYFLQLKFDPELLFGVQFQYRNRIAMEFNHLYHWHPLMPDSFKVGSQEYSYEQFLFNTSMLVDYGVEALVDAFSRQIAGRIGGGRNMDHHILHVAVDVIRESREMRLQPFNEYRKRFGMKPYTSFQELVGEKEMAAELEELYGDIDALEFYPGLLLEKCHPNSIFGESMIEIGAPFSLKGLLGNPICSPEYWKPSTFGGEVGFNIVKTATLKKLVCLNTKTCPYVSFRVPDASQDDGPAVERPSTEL

By IC50 is commonly meant the midpoint of a concentration-inhibition curve. `COc1ccc(C(=O)c2ccc(Cc3ccc(=O)[nH]n3)n2C)cc1` [Compound 53, 6-[5-(4-methoxy-benzoyl)-1-methyl-1H-pyrrol-2-ylmethyl]-2H-pyridazin-3-one]: the IC50 stood at 1 µM on COX II and 420 µM at COX I.

On to `CC[C@@H](C)NC(=O)Cn1nc(Cc2cc(C)c(C(=O)c3ccc(Cl)cc3)n2C)ccc1=O` [Compound 158, R--N-sec-butyl-2-{3-[5-(4-chloro-benzoyl)-1,4,-dimethyl-1H-pyrrol-2-ylmethyl]-6-oxo-6H-pyridazin-1-yl}-acetamide], for which the IC50 was 0.68 µM on COX II and 3.2 µM at COX I.

In the case of `COc1ccc(C(=O)c2c(C)cc(Cc3ccc(=O)[nH]n3)n2C)cc1` [Compound 31, 6-[1,4-dimethyl-5-(4-methoxy-benzoyl)-1-H-pyrrol-2-ylmethyl]-2H-pyridazin-3-one], the IC50 on COX II was 0.2 µM; on COX I, 35 µM.

On to `COCCn1nc(Cc2cc(C)c(C(=O)c3ccc(Cl)cc3)n2C)ccc1=O` [Compound 124, 6-[5-(4-chloro-benzoyl)-1,4,-dimethyl-1H-pyrrol-2-ylmethyl]-2-(2-methoxy-ethyl)-2H-pyridazin-3-one], for which the half-inhibitory concentration (IC50) at COX II came to 0.54 µM; on COX I, 94 µM.

Consider `Cc1ccc(C(=O)c2cc(Br)c(Cc3ccc(=O)[nH]n3)n2C)cc1` [Compound 130, 6-[3-bromo-1-methyl-5-(4-methyl-benzoyl)-1H-pyrrol-2-ylmethyl]-2H-pyridazin-3-one], for which the values for the 50% inhibitory concentration (IC50) at COX II and on COX I were 0.58 µM and more than 100 µM, respectively.

For the compound `Cc1c(Br)c(Cc2ccc(=O)[nH]n2)n(C)c1C(=O)c1ccc(Cl)cc1` [Compound 25, 6-[3-bromo-5-(4-chloro-benzoyl)-1,4-dimethyl-1H-pyrrol-2-ylmethyl]-2H-pyridazin-3-one], the IC50 on COX II is 1.8 µM; at COX I it was 277 µM.

With `Cc1cc(Cc2ccc(=O)n(Cc3ccc(F)cc3)n2)n(C)c1C(=O)c1ccc(Cl)cc1` [Compound 129, 6-[5-(4-chloro-benzoyl)-1,4,-dimethyl-1H-pyrrol-2-ylmethyl]-2-(4-fluorobenzyl)-2H-pyridazin-3-one], the IC50 on COX II came out at 0.067 µM; at COX I it was 3.4 µM.

In the case of `Cc1ccc(C(=O)c2ccc(CC3=NNC(=O)CC3)n2C)cc1` [Compound 102, 6-[1-methyl-5-(4-methyl-benzoyl)-1H-pyrrol-2-ylmethyl]-4,5-dihydro-2H-pyridazin-3-one], the IC50 on COX II worked out at 3.1 µM; at COX I it was 260 µM.

On to `COC(=O)Cn1nc(Cc2cc(C)c(C(=O)c3ccc(Cl)cc3)n2C)ccc1=O` [Compound 116, {3-[5-(4-chloro-benzoyl)-1,4,-dimethyl-1H-pyrrol-2-ylmethyl]-6-oxo-6H-pyridazin-1-yl}-acetic acid methyl ester], for which the half-inhibitory concentration (IC50) at COX II was found to be 0.18 µM; on COX I, 0.92 µM.

As to `Cc1ccc(C(=O)c2c(C)cc(Cc3ccc(=O)[nH]n3)n2C)cc1` [Compound 30, 6-[1,4-dimethyl-5-(4-methyl-benzoyl)-1H-pyrrol-2-ylmethyl]-2H-pyridazin-3-one], the IC50 at COX II came out at 0.5 µM; at COX I it was 40 µM.

In the case of `Cc1cc(Cc2ccc(=O)n(CCF)n2)n(C)c1C(=O)c1ccc(Cl)cc1` [Compound 123, 6-[5-(4-chloro-benzoyl)-1,4-dimethyl-1H-pyrrol-2-ylmethyl]-2-(2-fluoroethyl)-2H-pyridazin-3-one], the 50% inhibitory concentration (IC50) at COX II is less than 0.03 µM; at COX I, 3.5 µM.

Consider `Cc1c(Cl)c(Cc2ccc(=O)[nH]n2)n(C)c1C(=O)c1ccc(Cl)cc1` [Compound 24, 6-[3-chloro-5-(4-chloro-benzoyl)-1,4-dimethyl-1H-pyrrol-2-ylmethyl]-2H-pyridazin-3-one], for which the IC50 came to 0.7 µM on COX II and 440 µM at COX I.

`Cn1c(Cc2ccc(=O)[nH]n2)cc(Cl)c1C(=O)c1ccc(Cl)cc1` [Compound 81, 6-[4-chloro-5-(4-chloro-benzoyl)-1-methyl-1H-pyrrol-2-ylmethyl]-2H-pyridazin-3-one]: the IC50 on COX II was 0.44 µM; at COX I, more than 300 µM.

Consider `CSc1ccc(C(=O)c2ccc(Cc3ccc(=O)[nH]n3)n2C)cc1` [Compound 43, 6-[1-methyl-5-(4-methylthio-benzoyl)-1H-pyrrol-2-ylmethyl]-2H-pyridazin-3-one], for which the IC50 amounted to 0.3 µM at COX II and 23 µM on COX I.

As to `Cc1cc(Cc2ccc(=O)[nH]n2)n(C)c1C(=O)c1ccccc1` [Compound 32, 6-[5-benzoyl-1,4-dimethyl-1H-pyrrol-2-ylmethyl]-2H-pyridazin-3-one], the IC50 is 1.5 µM at COX II and 26.7 µM at COX I.

For the compound `C#CCn1nc(Cc2cc(C)c(C(=O)c3ccc(Cl)cc3)n2C)ccc1=O` [Compound 126, 6-[5-(4-chloro-benzoyl)-1,4-dimethyl-1H-pyrrol-2-ylmethyl]-2-prop-2-ynyl-2H-pyridazin-3-one], the IC50 on COX II amounted to 0.97 µM; at COX I, 61.4 µM.

Consider `Cn1c(Cc2ccc(=O)[nH]n2)ccc1C(=O)c1cccs1` [Compound 62, 6-[1-methyl-5-(thienyl-2-carbonyl)-1H-pyrrol-2-ylmethyl]-2H-pyridazin-3-one], for which the IC50 at COX II worked out at 7 µM; on COX I, 140 µM.

As to `Cn1c(Cc2ccc(=O)[nH]n2)ccc1C(=O)c1ccc(Br)cc1` [Compound 57, 6-[5-(4-bromo-benzoyl)-1-methyl-1H-pyrrol-2-ylmethyl]-2H-pyridazin-3-one], the 50% inhibitory concentration (IC50) on COX II was 4.6 µM; on COX I, 700 µM.

`Cc1cc(Cc2ccc(=O)n(CCC#N)n2)n(C)c1C(=O)c1ccc(Cl)cc1` [Compound 145, 6-[5-(4-chloro-benzoyl)-1,4,-dimethyl-1H-pyrrol-2-ylmethyl]-2-(2-cyano-ethyl)-2H-pyridazin-3-one]: the IC50 at COX II amounted to 0.91 µM; on COX I, 85 µM.

As to `Cc1cc(Cc2ccc(=O)n(CC(N)=O)n2)n(C)c1C(=O)c1ccc(Cl)cc1` [Compound 120, 2-{3-[5-(4-chloro-benzoyl)-1,4,-dimethyl-1H-pyrrol-2-ylmethyl]-6-oxo-6H-pyridazin-1-yl}-acetamide], the IC50 at COX II was determined as 0.8 µM; on COX I, 8.9 µM.

For the compound `CC(=O)n1nc(Cc2cc(C)c(C(=O)c3ccc(Cl)cc3)n2C)ccc1=O` [Compound 114, 2-acetyl-6-[5-(4-chloro-benzoyl)-1,4,-dimethyl-1H-pyrrol-2-ylmethyl]-2H-pyridazin-3-one], the results for the IC50 on COX II and on COX I were 0.66 µM and 82 µM, respectively.

`COc1ccc(Cn2nc(Cc3cc(C)c(C(=O)c4ccc(Cl)cc4)n3C)ccc2=O)cc1` [Compound 168, 6-[5-(4-chloro-benzoyl)-1,4,-dimethyl-1H-pyrrol-2-ylmethyl]-2-(4-methoxybenzyl)-2H-pyridazin-3-one]: the IC50 at COX II stood at 0.91 µM; on COX I, 7.9 µM.

Take `COc1ccc(C(=O)c2c(Cl)cc(Cc3ccc(=O)[nH]n3)n2C)cc1` [Compound 82, 6-[4-chloro-5-(4-methoxy-benzoyl)-1-methyl-1H-pyrrol-2-ylmethyl]-2H-pyridazin-3-one]: the figures for the IC50 at COX II and on COX I were 0.81 µM and 20.6 µM, respectively.

`C=CCn1nc(Cc2cc(C)c(C(=O)c3ccc(Cl)cc3)n2C)ccc1=O` [Compound 127, 2-allyl-6-[5-(4-chloro-benzoyl)-1,4-dimethyl-1H-pyrrol-2-ylmethyl]-2H-pyridazin-3one]: the values for the IC50 on COX II and at COX I were 0.67 µM and 57 µM, respectively.

For `Cc1cc(Cc2ccc(=O)n(Cc3c(Cl)cccc3Cl)n2)n(C)c1C(=O)c1ccc(Cl)cc1` [Compound 152, 6-[5-(4-chloro-benzoyl)-1,4,-dimethyl-1H-pyrrol-2-ylmethyl]-2-(2,6-dichlorobenzyl)-2H-pyridazin-3-one], the IC50 on COX II turned out to be 0.14 µM; at COX I, 10 µM.

Source of the values: patent US5622948A, “Pyrrole pyridazine and pyridazinone anti-inflammatory agents” (Syntex (U.S.A.) Inc., priority 1994, dated 1997).
